Test results: ChEMBL document CHEMBL5465560, “Selectivity Literature for EUbOPEN Chemogenomic Library” (2024)

What was measured:
[1] = target: T1, Dual specificity mitogen-activated protein kinase kinase 6 (Homo sapiens) (UniProt P52564); assay: Selectivity interaction (KinomeScan (DiscoverX)) EUB0001049a MAP2K6; details: at 1 µM
T1 sequence (whole entry): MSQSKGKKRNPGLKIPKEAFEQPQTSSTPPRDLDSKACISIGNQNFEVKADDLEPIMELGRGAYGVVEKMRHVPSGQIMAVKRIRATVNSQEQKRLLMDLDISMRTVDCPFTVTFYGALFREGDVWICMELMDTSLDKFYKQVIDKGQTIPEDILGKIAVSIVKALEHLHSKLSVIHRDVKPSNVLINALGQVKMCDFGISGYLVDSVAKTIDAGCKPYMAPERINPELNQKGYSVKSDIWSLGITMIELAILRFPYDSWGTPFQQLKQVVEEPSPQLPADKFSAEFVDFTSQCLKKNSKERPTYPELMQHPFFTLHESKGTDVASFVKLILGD

[2] = target: T2, Dual specificity tyrosine-phosphorylation-regulated kinase 4 (Homo sapiens) (UniProt Q9NR20); assay: Selectivity interaction (Kinase panel (Invitrogen)) EUB0000639a DYRK4; details: at 200 nM
T2 sequence (whole entry): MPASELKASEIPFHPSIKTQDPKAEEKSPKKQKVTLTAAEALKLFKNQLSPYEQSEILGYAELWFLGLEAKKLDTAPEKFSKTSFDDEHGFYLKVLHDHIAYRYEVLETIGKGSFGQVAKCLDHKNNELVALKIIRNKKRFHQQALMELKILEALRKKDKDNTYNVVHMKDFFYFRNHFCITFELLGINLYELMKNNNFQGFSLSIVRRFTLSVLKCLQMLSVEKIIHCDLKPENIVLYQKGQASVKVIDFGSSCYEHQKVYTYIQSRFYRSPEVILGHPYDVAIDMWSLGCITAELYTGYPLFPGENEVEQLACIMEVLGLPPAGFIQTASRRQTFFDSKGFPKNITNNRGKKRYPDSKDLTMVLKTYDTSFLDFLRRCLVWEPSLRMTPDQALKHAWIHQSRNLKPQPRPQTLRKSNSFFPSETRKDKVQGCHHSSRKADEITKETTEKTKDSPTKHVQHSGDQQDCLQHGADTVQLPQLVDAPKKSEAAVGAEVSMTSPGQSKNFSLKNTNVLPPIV

[3] = Selectivity interaction (KinomeScan (DiscoverX)) EUB0000092b CDPK1; details: at 10 µM
[4] = target: Tyrosine-protein kinase BTK (Homo sapiens, UniProt Q06187); assay: Selectivity interaction (Ambit KINOMEscan and KiNATiv profiling in Jurkat cells) EUB0000090b BTK; type: cell-based; details: at 1 µM
Tyrosine-protein kinase BTK, sequence (Q06187 whole entry): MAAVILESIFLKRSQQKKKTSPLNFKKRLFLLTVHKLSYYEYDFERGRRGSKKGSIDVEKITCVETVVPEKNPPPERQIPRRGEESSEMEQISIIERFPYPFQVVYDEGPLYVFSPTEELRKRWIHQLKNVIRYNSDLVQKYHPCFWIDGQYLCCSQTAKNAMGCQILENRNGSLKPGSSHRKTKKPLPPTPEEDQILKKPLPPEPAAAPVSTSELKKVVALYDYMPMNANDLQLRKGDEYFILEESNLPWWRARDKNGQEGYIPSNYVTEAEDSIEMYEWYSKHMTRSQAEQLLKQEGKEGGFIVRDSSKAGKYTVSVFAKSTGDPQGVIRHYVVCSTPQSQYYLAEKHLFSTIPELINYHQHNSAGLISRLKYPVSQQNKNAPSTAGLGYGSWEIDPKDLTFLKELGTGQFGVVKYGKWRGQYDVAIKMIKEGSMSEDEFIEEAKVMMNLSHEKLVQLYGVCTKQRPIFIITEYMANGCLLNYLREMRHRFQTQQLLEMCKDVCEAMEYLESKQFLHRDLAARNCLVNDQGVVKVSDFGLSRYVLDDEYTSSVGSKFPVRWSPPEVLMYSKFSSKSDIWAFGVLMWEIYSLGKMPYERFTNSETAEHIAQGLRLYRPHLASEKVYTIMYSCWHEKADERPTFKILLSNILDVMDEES

[5] = target: T3, Tyrosine-protein kinase ITK/TSK (Homo sapiens) (UniProt Q08881); details: at 10 µM
T3 sequence (whole entry): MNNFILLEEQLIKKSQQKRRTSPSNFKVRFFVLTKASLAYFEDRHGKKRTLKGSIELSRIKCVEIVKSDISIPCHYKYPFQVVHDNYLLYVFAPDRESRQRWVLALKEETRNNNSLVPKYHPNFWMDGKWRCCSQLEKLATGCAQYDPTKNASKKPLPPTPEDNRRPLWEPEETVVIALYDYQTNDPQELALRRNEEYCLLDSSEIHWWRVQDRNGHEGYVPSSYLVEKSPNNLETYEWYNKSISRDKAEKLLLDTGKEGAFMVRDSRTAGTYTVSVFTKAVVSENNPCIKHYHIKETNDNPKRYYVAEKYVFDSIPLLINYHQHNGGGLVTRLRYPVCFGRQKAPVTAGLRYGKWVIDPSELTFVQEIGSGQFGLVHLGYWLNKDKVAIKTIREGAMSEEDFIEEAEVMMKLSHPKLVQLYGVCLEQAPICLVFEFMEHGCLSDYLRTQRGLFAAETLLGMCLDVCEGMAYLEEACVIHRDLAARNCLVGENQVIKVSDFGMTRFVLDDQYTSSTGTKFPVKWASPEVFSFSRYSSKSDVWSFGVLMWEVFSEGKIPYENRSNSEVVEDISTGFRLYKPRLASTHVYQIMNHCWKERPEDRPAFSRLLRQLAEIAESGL

[6] = target: T4, Serine/threonine-protein kinase Nek2 (Homo sapiens) (UniProt P51955); assay: Selectivity interaction (KinomeScan (DiscoverX)) EUB0000655a NEK2; details: at 10 µM
T4 sequence (whole entry): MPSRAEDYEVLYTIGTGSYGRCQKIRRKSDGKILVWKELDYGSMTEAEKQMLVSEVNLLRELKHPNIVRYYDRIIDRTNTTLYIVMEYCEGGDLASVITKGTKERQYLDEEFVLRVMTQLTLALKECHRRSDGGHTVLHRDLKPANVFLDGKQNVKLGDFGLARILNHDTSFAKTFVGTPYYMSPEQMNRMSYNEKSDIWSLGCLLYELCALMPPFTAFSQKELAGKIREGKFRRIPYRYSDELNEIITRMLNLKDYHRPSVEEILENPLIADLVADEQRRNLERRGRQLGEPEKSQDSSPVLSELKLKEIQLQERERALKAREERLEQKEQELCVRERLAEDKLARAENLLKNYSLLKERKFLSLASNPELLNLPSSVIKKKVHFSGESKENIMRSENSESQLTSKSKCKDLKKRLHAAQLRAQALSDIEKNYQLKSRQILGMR

[7] = target: T5, Inhibitor of nuclear factor kappa-B kinase subunit epsilon (Homo sapiens) (UniProt Q14164); assay: Selectivity interaction (KinomeScan (DiscoverX)) EUB0000607a IKBKE; details: at 10 µM
T5 sequence (whole entry): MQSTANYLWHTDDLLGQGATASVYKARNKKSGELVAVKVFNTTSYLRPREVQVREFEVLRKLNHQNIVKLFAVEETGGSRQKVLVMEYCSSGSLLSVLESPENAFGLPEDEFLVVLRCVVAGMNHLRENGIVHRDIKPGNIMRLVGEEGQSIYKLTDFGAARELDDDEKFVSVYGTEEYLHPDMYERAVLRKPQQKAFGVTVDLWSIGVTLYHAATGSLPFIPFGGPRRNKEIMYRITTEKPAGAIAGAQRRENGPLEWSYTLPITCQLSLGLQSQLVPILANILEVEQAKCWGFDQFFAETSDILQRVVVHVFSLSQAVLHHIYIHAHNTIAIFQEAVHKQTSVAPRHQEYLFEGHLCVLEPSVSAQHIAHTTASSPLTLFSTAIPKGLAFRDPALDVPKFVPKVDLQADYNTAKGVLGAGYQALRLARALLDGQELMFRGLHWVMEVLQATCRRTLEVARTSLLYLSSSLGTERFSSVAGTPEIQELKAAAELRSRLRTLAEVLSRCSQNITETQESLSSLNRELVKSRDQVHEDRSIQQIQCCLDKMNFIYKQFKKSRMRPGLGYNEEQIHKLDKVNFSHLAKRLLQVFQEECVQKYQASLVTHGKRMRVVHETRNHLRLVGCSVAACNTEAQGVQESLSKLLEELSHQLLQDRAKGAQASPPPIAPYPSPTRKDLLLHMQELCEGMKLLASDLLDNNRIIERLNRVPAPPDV

COc1cc(Nc2nc(C)cc(-c3cnn4nc(OC)ccc34)n2)cc(C(F)(F)F)c1
% of control [1]: 100%

CC[C@@H]1[C@H](F)C(=O)N[C@@H]1COc1nccc2cc(C(N)=O)c(OC)cc12 [ZIMLOVISERTIB]
% of inhibition [2]: 5.52%

CCC(=O)N1CCN(c2ccc(-n3c(=O)ccc4cnc5ccc(-c6cnc7ccccc7c6)cc5c43)cc2C(F)(F)F)CC1
% of control [3]: 36%

CN(C)C/C=C/C(=O)Nc1ccc(C(=O)N2CCCC(Nc3ncc(Cl)c(-c4c[nH]c5ccccc45)n3)C2)cc1 (configuration not stated)
% of control [4]: 90%

Cc1cc([C@@H](C)Nc2ccccc2C(=O)O)c2nc(N3CCOCC3)cc(=O)n2c1 [AZD-6482]
% of control [5]: 98%

CN(C)CCOc1ccc(-c2nc(-c3ccncc3)c(-c3ccc4c(c3)CC/C4=N\O)[nH]2)cc1
% of control [6]: 100%

CNC(=O)Nc1ccc(-c2nc(N3CC4CCC(C3)O4)c3cnn(C4CCC5(CC4)OCCO5)c3n2)cc1
% of control [7]: 100%
